ChEMBL document CHEMBL4507258 (2021)

Key:
[1] = biological target: T1, 5-hydroxytryptamine receptor 3A (Homo sapiens) (UniProt P46098); details: Compound concentration 10.0 uM
T1 sequence (whole entry): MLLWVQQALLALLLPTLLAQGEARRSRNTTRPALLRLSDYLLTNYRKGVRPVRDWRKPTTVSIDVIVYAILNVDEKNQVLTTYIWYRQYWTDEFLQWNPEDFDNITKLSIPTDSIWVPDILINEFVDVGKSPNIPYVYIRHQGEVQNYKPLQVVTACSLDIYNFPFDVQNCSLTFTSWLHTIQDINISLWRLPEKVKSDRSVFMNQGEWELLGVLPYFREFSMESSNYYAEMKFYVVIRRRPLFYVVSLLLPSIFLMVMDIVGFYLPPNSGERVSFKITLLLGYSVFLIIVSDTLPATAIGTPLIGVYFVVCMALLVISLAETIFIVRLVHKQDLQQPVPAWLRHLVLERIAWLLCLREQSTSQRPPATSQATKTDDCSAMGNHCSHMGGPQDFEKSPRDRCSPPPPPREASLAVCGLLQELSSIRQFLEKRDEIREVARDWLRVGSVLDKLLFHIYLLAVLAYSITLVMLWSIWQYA

[2] = biological target: Phosphatidylinositol 4-phosphate 5-kinase type-1 alpha (Homo sapiens) (UniProt Q99755); details: Compound concentration 1000.0 nM
[3] = tested on: Receptor-type tyrosine-protein kinase FLT3 (Homo sapiens), P36888 [UNDEFINED MUTATION]; details: Compound concentration 1000.0 nM
[4] = biological target: Histamine H3 receptor (Homo sapiens) (UniProt Q9Y5N1); details: Compound concentration 10.0 uM
[5] = biological target: Serine/threonine-protein kinase ULK1 (Homo sapiens) (UniProt O75385); details: Compound concentration 1000.0 nM
[6] = biological target: SRSF protein kinase 1 (Homo sapiens) (UniProt Q96SB4); details: Compound concentration 1000.0 nM
[7] = biological target: Ephrin type-B receptor 2 (Homo sapiens) (UniProt P29323); details: Compound concentration 1000.0 nM
[8] = tested on: Tyrosine-protein kinase ABL1 (Homo sapiens), P00519 [E255K]; details: Compound concentration 1000.0 nM
[9] = biological target: Ribosomal protein S6 kinase alpha-2 (Homo sapiens) (UniProt Q15349); details: Compound concentration 1000.0 nM
[10] = biological target: Serine/threonine-protein kinase TAO2 (Homo sapiens) (UniProt Q9UL54); details: Compound concentration 1000.0 nM
[11] = tested on: Mast/stem cell growth factor receptor Kit (Homo sapiens), P10721 [V559D,T670I]; details: Compound concentration 1000.0 nM
[12] = biological target: Serine/threonine-protein kinase 16 (Homo sapiens) (UniProt O75716); details: Compound concentration 1000.0 nM
[13] = biological target: BDNF/NT-3 growth factors receptor (Homo sapiens) (UniProt Q16620); details: Compound concentration 1000.0 nM
[14] = biological target: Cyclin-dependent kinase 4 (Homo sapiens) (UniProt P11802); details: Compound concentration 1000.0 nM
[15] = biological target: Serine/threonine-protein kinase Sgk3 (Homo sapiens) (UniProt Q96BR1); details: Compound concentration 1000.0 nM
[16] = biological target: Bone morphogenetic protein receptor type-1B (Homo sapiens) (UniProt O00238); details: Compound concentration 1000.0 nM
[17] = biological target: Mast/stem cell growth factor receptor Kit (Homo sapiens) (UniProt P10721); details: Compound concentration 1000.0 nM
[18] = biological target: Cyclin-dependent kinase 2 (Homo sapiens) (UniProt P24941); details: Compound concentration 1000.0 nM
[19] = biological target: Serine/threonine-protein kinase MRCK alpha (Homo sapiens) (UniProt Q5VT25); details: Compound concentration 1000.0 nM
[20] = tested on: Phosphatidylinositol 4,5-bisphosphate 3-kinase catalytic subunit alpha isoform (Homo sapiens), P42336 [I800L]; details: Compound concentration 1000.0 nM
[21] = biological target: Receptor-interacting serine/threonine-protein kinase 2 (Homo sapiens) (UniProt O43353); details: Compound concentration 1000.0 nM
[22] = biological target: Dual specificity tyrosine-phosphorylation-regulated kinase 1B (Homo sapiens) (UniProt Q9Y463); details: Compound concentration 1000.0 nM
[23] = biological target: Calcium/calmodulin-dependent protein kinase type 1B (Homo sapiens, UniProt Q6P2M8); details: Compound concentration 1000.0 nM
[24] = tested on: Hepatocyte growth factor receptor (Homo sapiens), P08581 [M1250T]; details: Compound concentration 1000.0 nM
[25] = biological target: Tyrosine-protein kinase HCK (Homo sapiens) (UniProt P08631); details: Compound concentration 1000.0 nM
[26] = biological target: T2, D(4) dopamine receptor (Homo sapiens) (UniProt P21917); details: Compound concentration 10.0 uM
T2 sequence (whole entry): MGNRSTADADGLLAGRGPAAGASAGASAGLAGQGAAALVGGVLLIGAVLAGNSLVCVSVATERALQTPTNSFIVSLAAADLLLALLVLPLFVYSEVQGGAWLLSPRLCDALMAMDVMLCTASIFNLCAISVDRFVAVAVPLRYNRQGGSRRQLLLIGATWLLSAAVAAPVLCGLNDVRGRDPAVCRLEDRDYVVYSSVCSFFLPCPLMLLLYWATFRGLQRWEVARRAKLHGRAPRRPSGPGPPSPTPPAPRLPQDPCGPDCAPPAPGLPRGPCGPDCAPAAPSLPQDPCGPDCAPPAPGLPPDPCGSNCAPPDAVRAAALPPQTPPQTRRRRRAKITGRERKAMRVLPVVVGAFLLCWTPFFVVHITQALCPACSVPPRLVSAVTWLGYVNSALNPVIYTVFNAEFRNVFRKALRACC

[27] = biological target: Calcium/calmodulin-dependent protein kinase type II subunit gamma (Homo sapiens) (UniProt Q13555); details: Compound concentration 1000.0 nM
[28] = biological target: NT-3 growth factor receptor (Homo sapiens) (UniProt Q16288); details: Compound concentration 1000.0 nM
[29] = biological target: Serine/threonine-protein kinase haspin (Homo sapiens) (UniProt Q8TF76); details: Compound concentration 1000.0 nM
[30] = tested on: Epidermal growth factor receptor (Homo sapiens), P00533 [UNDEFINED MUTATION]; details: Compound concentration 1000.0 nM
[31] = biological target: Cyclin-dependent kinase-like 2 (Homo sapiens) (UniProt Q92772); details: Compound concentration 1000.0 nM
[32] = biological target: Cyclin-dependent kinase 13 (Homo sapiens) (UniProt Q14004); details: Compound concentration 1000.0 nM

SRSF protein kinase 1 (Homo sapiens), sequence (Q96SB4 whole entry): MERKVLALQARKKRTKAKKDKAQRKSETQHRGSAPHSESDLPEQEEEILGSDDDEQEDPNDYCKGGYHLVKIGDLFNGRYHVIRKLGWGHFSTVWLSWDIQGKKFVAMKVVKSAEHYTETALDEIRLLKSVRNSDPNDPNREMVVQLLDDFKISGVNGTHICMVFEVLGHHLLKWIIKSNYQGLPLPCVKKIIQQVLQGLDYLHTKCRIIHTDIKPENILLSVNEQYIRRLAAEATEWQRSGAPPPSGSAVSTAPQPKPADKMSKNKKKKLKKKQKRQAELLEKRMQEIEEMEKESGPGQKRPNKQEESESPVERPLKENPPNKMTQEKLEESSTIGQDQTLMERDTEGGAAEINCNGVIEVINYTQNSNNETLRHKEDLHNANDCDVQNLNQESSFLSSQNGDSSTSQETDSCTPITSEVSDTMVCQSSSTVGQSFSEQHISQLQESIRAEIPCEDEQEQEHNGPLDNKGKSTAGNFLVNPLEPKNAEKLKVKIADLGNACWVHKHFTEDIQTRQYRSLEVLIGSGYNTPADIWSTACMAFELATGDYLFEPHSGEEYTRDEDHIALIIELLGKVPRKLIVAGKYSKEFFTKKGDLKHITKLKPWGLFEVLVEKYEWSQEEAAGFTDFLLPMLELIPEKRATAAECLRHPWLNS
Serine/threonine-protein kinase ULK1 (Homo sapiens), sequence (O75385 whole entry): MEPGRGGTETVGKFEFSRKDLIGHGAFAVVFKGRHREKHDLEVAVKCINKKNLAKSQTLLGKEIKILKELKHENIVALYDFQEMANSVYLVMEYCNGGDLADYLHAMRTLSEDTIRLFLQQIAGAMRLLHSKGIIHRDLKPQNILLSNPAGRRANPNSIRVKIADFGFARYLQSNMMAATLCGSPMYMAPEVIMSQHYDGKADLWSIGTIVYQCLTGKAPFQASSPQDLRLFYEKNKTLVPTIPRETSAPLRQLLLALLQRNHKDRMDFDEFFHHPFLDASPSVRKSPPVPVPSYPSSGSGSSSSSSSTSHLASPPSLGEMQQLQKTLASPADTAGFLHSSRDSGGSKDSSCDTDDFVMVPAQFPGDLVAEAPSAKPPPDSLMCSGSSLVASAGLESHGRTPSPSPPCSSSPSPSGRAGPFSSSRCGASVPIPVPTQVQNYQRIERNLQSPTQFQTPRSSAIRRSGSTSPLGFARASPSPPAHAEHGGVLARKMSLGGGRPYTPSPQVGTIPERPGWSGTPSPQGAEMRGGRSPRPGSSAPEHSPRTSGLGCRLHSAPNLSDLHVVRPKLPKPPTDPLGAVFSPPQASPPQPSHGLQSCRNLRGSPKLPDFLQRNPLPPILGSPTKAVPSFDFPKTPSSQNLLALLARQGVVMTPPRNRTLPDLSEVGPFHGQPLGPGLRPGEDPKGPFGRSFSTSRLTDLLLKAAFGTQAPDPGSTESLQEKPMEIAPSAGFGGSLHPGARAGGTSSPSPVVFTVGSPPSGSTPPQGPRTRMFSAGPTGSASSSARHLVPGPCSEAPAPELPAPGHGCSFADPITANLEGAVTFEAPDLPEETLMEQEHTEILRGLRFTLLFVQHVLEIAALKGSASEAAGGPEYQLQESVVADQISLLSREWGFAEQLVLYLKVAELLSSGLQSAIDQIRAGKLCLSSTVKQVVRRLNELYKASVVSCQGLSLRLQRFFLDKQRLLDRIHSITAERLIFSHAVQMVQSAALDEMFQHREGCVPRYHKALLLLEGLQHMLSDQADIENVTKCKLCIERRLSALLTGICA
Bone morphogenetic protein receptor type-1B (Homo sapiens), sequence (O00238 whole entry): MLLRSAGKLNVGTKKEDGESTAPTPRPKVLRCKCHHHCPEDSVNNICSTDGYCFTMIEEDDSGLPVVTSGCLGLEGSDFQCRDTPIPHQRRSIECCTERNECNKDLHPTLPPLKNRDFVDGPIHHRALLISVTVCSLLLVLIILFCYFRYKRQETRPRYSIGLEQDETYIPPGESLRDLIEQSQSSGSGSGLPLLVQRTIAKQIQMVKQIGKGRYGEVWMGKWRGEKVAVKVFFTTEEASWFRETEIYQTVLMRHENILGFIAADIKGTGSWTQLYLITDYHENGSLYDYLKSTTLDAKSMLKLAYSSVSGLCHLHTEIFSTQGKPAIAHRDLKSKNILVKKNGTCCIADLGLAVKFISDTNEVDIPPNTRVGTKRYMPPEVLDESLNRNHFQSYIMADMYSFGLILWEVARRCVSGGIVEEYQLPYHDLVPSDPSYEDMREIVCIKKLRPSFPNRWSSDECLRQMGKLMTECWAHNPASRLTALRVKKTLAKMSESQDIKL
Phosphatidylinositol 4,5-bisphosphate 3-kinase catalytic subunit alpha isoform (Homo sapiens), P42336 [I800L], sequence (P42336 whole entry I800L, canonical isoform): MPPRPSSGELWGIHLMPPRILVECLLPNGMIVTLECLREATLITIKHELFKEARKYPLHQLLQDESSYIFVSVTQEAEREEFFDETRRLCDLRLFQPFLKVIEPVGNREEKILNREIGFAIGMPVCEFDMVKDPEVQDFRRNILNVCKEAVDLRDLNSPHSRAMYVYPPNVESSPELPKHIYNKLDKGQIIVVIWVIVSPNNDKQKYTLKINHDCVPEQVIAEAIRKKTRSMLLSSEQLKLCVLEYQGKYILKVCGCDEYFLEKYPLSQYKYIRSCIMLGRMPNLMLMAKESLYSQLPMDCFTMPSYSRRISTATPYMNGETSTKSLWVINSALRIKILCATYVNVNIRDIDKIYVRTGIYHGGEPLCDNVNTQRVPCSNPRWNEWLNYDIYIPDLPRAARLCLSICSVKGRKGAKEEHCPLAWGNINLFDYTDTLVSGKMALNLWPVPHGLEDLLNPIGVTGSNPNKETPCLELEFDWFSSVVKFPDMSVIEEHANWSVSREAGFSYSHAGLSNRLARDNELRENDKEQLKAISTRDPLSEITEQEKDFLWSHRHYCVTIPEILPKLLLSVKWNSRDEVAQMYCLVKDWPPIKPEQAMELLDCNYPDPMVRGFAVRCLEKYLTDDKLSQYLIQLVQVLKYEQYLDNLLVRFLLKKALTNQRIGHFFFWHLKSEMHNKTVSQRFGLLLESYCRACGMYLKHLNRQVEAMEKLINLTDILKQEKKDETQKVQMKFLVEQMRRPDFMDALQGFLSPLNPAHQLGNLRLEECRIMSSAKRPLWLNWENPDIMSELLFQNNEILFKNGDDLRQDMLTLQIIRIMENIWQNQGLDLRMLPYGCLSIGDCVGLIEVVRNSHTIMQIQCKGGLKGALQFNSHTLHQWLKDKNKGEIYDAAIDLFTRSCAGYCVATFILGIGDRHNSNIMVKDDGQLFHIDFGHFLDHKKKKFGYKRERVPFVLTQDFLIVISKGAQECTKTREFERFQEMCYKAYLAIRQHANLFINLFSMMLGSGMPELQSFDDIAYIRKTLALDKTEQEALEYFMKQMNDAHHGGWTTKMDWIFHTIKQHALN
Cyclin-dependent kinase 4 (Homo sapiens), sequence (P11802 whole entry): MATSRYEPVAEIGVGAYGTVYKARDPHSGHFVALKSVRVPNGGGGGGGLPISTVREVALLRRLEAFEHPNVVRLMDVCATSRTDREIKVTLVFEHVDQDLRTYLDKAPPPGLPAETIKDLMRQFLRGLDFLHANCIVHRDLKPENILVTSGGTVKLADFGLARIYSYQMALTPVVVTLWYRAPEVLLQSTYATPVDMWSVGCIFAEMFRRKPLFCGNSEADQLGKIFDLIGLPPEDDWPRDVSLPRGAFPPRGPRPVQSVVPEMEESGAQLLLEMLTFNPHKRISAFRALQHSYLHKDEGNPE
Mast/stem cell growth factor receptor Kit (Homo sapiens), P10721 [V559D,T670I], sequence (P10721 whole entry V559D/T670I): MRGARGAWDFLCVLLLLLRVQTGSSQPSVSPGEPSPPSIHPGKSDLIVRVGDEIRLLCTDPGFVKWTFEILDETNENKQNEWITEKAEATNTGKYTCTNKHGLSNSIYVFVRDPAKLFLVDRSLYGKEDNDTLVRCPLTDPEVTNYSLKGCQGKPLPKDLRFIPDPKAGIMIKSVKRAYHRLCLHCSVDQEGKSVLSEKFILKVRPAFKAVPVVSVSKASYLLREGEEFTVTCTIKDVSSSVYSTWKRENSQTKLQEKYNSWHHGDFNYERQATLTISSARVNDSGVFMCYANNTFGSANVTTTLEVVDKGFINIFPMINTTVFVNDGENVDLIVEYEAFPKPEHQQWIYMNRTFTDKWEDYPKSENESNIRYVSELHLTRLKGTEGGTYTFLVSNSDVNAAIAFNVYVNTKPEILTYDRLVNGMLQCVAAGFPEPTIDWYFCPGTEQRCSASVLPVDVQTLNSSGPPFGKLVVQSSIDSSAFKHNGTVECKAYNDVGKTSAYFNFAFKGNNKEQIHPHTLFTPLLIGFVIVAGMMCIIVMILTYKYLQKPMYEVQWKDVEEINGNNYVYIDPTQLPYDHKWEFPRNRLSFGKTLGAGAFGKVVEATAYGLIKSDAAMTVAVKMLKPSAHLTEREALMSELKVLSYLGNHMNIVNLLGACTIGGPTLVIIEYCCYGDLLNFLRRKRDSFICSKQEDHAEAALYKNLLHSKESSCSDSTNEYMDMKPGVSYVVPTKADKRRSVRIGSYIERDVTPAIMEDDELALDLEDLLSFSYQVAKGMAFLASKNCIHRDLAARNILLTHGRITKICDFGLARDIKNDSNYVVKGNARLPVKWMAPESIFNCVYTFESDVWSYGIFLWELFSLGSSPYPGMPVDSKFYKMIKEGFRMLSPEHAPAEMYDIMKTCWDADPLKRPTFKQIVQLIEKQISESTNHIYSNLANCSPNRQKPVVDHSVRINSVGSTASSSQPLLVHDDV
Mast/stem cell growth factor receptor Kit (Homo sapiens), sequence (P10721 whole entry): as the sequence (P10721 whole entry V559D/T670I) above, with D559V, I670T counted along it
Serine/threonine-protein kinase 16 (Homo sapiens), sequence (O75716 whole entry): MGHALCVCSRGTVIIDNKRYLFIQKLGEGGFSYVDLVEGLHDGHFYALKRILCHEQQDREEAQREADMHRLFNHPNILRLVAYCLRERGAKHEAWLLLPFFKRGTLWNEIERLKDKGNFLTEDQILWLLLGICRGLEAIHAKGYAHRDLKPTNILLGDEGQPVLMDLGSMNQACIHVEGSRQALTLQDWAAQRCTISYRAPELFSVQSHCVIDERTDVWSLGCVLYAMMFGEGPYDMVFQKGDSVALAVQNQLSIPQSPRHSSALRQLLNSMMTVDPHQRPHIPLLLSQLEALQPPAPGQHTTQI

| Compound | inhibition [1] [%] | residual activity [2] [%] | residual activity [3] [%] | inhibition [4] [%] | residual activity [5] [%] | residual activity [6] [%] | residual activity [7] [%] | residual activity [8] [%] | residual activity [9] [%] | residual activity [10] [%] | residual activity [11] [%] | residual activity [12] [%] | residual activity [13] [%] | residual activity [14] [%] | residual activity [15] [%] | residual activity [16] [%] | residual activity [17] [%] | residual activity [18] [%] | residual activity [19] [%] | residual activity [20] [%] | further results |
| --- | --- | --- | --- | --- | --- | --- | --- | --- | --- | --- | --- | --- | --- | --- | --- | --- | --- | --- | --- | --- | --- |
| CCCCN(CCCC)C(=O)CN1C[C@@H](c2cc(OC)c3c(c2)OCO3)[C@H](C(=O)O)[C@H]1CC(C)(C)CCC [A-545] | 2.23 | 100 | 97.4 | 17 | 89.2 | 62.5 | 73 | 93.5 | 90.2 | 95.4 | 79 | 100 | 98.3 | 100 | 100 | 100 | 100 | 100 | 96.6 | 100 | residual activity [21]: 100%; residual activity [22]: 95%; residual activity [23]: 100%; residual activity [24]: 100%; residual activity [25]: 82.8%; inhibition [26]: 87.1%; residual activity [27]: 94.3%; residual activity [28]: 87.6%; residual activity [29]: 100%; residual activity [30]: 100%; residual activity [31]: 39.2%; residual activity [32]: 100% |
| CCCCN(CCCC)C(=O)CN1C[C@H](c2cc(OC)c3c(c2)OCO3)[C@@H](C(=O)O)[C@@H]1CC(C)(C)CCC [ABT-546] | 14.7 | 100 | 46.4 | -3.57 | 79.4 | 100 | 100 | 83.7 | 100 | 71.1 | 100 | 100 | 62 | 70.3 | 75.7 | 59 | 100 | 100 | 100 | 52.9 | residual activity [21]: 100%; residual activity [22]: 100%; residual activity [23]: 86.5%; residual activity [24]: 100%; residual activity [25]: 100%; inhibition [26]: 21.7%; residual activity [27]: 100%; residual activity [28]: 50.5%; residual activity [29]: 75.8%; residual activity [30]: 85%; residual activity [31]: 100%; residual activity [32]: 52.5% |
